Several values for one entry are separate records, joined by “and”; a condition that tells them apart may be missing. Equal values may be shown once.

The source of these data is patent US12622896B2, “Antiviral compounds, compositions and methods of use” (THE UNIVERSITY OF BRITISH COLUMBIA, priority 2019, dated 2026).

The test system of one series is HIV-1NL4-3. Put plainly: Preliminary anti-HIV screen: CEM-GXR reporter cells co-cultured with HIV-1NL4-3 infected cells, GFP by flow cytometry. The following applies: for anti-HIV activity in the primary library screen: CEM-GXR cells, 1.25-10 μM, percent infected cells on day 3 (FIGS. 1A, 1B); for anti-HIV activity, rank within the analogue series: within the C-2 substituted thiophene or thiazole series. In general terms: Flow cytometry measures light scatter and fluorescence of single cells or particles in a stream.

The next series relates to CEM-GXR cells. Put plainly: Guava ViaCount cytotoxicity on CEM-GXR cells. The series is classed as cell-based, human. Conditions: for toxicity in the preliminary screen: at 5 μM, data not shown; for toxicity of thiophene analogues: C-2 CF3 thiophene analogues. As to the method:
The ViaCount™ assay was performed with the Guava easyCyte 8HT™ flow cytometer according to the manufacturer's manual (Guava Technologies™, Inc., Hayward, CA, USA). In brief, CEM-GXR cells were seeded in 96-well plates 80000 cells/well in the absence or presence of compound in various concentrations. Twenty-four hours later, 25 μL of cell suspension was mixed with 225 μL of Guava ViaCount™ reagent, and the mixture was incubated for 5 min at room temperature. Sample acquisition and data analysis were performed with the selection of EasyFit™ analysis feature using the ViaCount™ software module.
The potential cytotoxic effect of the molecules on CEM-GXR cells viability was determined by the Guava ViaCount assay. This assay differentially stains viable and nonviable cells based on their permeability to the DNA-binding dyes and uses the forward scatter (FSC) properties to distinguish free nuclei and cellular debris from intact cells to quantify cell count. CEM-GXR cells were incubated with compound at concentrations ranging between 0.5 and 100 μM for 24 h.

In series [1] the test system is HIV-1 97USSN54 (subtype A, R5-tropic). Put plainly: Anti-HIV viral spread assay in CEM-GXR cells, wild-type subtype A. It is filed as cell-based. The following applies: Human immunodeficiency virus 1, nonlinear regression, read-out: EC50 (WT Subtype A). The text has this:
(§1) To validate these EC50 values, the anti-HIV drug, emtricitabine (FTC) was included in the anti-HIV assay as a positive control.

For series [2], the system named is PI-resistant isolate (2948). Put plainly: Anti-HIV assay against PI-resistant isolate 2948. Conditions: Human immunodeficiency virus 1, read-out: EC50 against PI-resistant isolate 2948.
Procedure: (§2) The anti-HIV activity of the compounds was measured by a human T-cell reporter assay based on CEM-GXR cells. These cells express GFP due to the activation of the tat-dependent promoter upon HIV-1 infection, and the level of infection was monitored using Flow cytometric analysis (Guavasoft 2.2™ software, Guava HT8, Millipore™). Antiviral activity was evaluated in an assay that measures the inhibition of HIV-1 spread in a co-culture of CEM-GXR cells containing one percent of HIV-1 infected (GFP positive) cells.
Series [3] has as its system Maraviroc-resistant variant of HIV-1BaL. Description: Anti-HIV assay against Maraviroc-resistant R5 strain. The following applies: Human immunodeficiency virus 1, read-out: EC50 against Maraviroc-resistant HIV-1 strain.
Procedure: as §2
(§3) This Maraviroc-resistant variant derived from a R5 strain of HIV-1BaL contains five mutations within the envelope V3 loop: A19T, L20F, T22A, E25D, and I26V.
Series [4] relates to (N)NRTI-resistant isolate (E00443). Description: Anti-HIV assay against (N)NRTI-resistant isolate E00443. The following applies: Human immunodeficiency virus 1, read-out: EC50 against isolate E00443.
Procedure: as §2
For series [5], the system named is clinical isolate (11845 INI). Description: Anti-HIV assay against INI-resistant clinical isolate 11845. The following applies: Human immunodeficiency virus 1, read-out: EC50 against 11845 clinical isolate.
Procedure: as §2, §3
A further series concerns PBMCs. Description: PBMC viability by ViaCount assay over 11 days. The following applies: up to 11 days; for cellular toxicity in PBMCs: 0.1-10 μM range. The series is classed as cell-based, human.
The test system of series [6] is Bcl-x transcript splicing. Description: SR-protein induced Bcl-x splicing, X2.13 minigene in 293 cells, RT-PCR. It is filed as cell-based. The following applies: 10 μM.
The test system of series [7] is HIV-1IIIB (subtype B, X4-tropic). Put plainly: Anti-HIV viral spread assay in CEM-GXR cells, wild-type subtype B. The series is classed as cell-based. Conditions: Human immunodeficiency virus 1; CEM-GXR cells, viral spread, nonlinear regression; read-out: EC50 (WT Subtype B).
From the text: as §1

The next series deals with HIV-1Bal strain. Put plainly: PBMC infection assay, p24Gag ELISA day 11, HIV-1BaL. The following applies: read-out: EC50 against HIV-1Bal in PBMC; three separate donors, one value per donor; p24 day 11; listed as GPS488.
The subject of another series is HIV. The following applies: literature; cited from earlier work.

Procedure for HIV-1Bal strain: Peripheral blood mononuclear cells (PBMC) were obtained from healthy HIV-negative donors following written informed consent and maintained in R10+ supplemented with 50 U/mL human IL-2. […] PBMC were activated with 5 μg/ml PHA and infected 3 days later with viral stocks at a multiplicity of infection (MOI) of 0.01. At 6 h post-infection, cells were washed and re-suspended in R10+ medium supplemented with 50 U/ml of IL-2 in the presence of GPS molecules or FTC as a control compound for an additional 11 days. The accumulation of p24Gag was quantified in culture supernatants at day 11 using an enzyme-linked immunosorbent assay (ELISA; Xpress Bio™), and the increase in p24Gag values was used as the measure of viral replication.
Procedure for HIV-1NL4-3: as §2
The reporter CEM-GXR cells were infected by co-culture with one percent HIV-1NL4-3 infected (GFP positive) cells at the start of the assay (day 0). Individual compounds from the library was added in DMSO at varying concentrations to the culture in each microplate well immediately after the inoculation by infected cells. The final library compound concentration ranged from 1.25-10 μM and the final DMSO concentration was less than 0.1%. The percent of infected cells in the culture was determined by flow cytometry on day 3 using GFP expression as a readout.

For the compound `O=C(Nc1nc2c(Cl)cccc2s1)c1ccc([N+](=O)[O-])s1` [5a, N-(4-Chlorobenzo[d]thiazol-2-yl)-5-nitrothiophene-2-carboxamide], the “anti-HIV activity in the primary library screen” value in the series on HIV-1NL4-3 is listed as “significant activity”.

Turning to `O=C(Nc1nc2ccc(OC(F)(F)F)cc2s1)c1ccc([N+](=O)[O-])s1` [5b, 5-Nitro-N-(6-(trifluoromethoxy)benzo[d]thiazol-2-yl)thiophene-2-carboxamide], the “anti-HIV activity in the primary library screen” value with HIV-1NL4-3 was “significant activity”. For the same compound, the “toxicity in the preliminary screen” value in the series on CEM-GXR cells is reported as “toxicity”.

With `O=C(Nc1nc2ccc([N+](=O)[O-])cc2s1)c1ccc([N+](=O)[O-])s1` [5c, 5-Nitro-N-(6-nitrobenzo[d]thiazol-2-yl)thiophene-2-carboxamide], the “anti-HIV activity in the primary library screen” value with HIV-1NL4-3 was “significant activity”.

For the compound `O=C(Nc1nc2ccc(Cl)cc2s1)c1ccc([N+](=O)[O-])s1` [5d, N-(6-Chlorobenzo[d]thiazol-2-yl)-5-nitrothiophene-2-carboxamide], the “anti-HIV activity in the primary library screen” value in the series on HIV-1NL4-3 is “significant activity”.

As to `O=C(Nc1nc2c(Cl)cc(Cl)cc2s1)c1ccc([N+](=O)[O-])s1` [5e, N-(4,6-Dichlorobenzo[d]thiazol-2-yl)-5-nitrothiophene-2-carboxamide], the “anti-HIV activity in the primary library screen” value in the series with HIV-1NL4-3 is on record as “significant activity”. Also, the “toxicity in the preliminary screen” value with CEM-GXR cells is recorded as “toxicity”.

Consider `O=C(Nc1nc2cc(Br)ccc2s1)c1ccc([N+](=O)[O-])s1` [5f, N-(5-Bromobenzo[d]thiazol-2-yl)-5-nitrothiophene-2-carboxamide], for which the “anti-HIV activity in the primary library screen” value in the series with HIV-1NL4-3 was “significant activity”. For the same compound, the “toxicity in the preliminary screen” value in the series on CEM-GXR cells is reported as “toxicity”.

As to `O=C(Nc1nc2ccccc2s1)c1ccc([N+](=O)[O-])s1` [5g, N-(Benzo[d]thiazol-2-yl)-5-nitrothiophene-2-carboxamide], the “anti-HIV activity in the primary library screen” value with HIV-1NL4-3 is on record as “moderate to weak”.

Take `O=C(Nc1nc2ccc(C(F)(F)F)cc2s1)c1ccc([N+](=O)[O-])s1` [5h, 5-Nitro-N-(6-(trifluoromethyl)benzo[d]thiazol-2-yl)thiophene-2-carboxamide]: in the series with HIV-1NL4-3, the “anti-HIV activity in the primary library screen” value is on record as “significant activity”.

With `CCOC(=O)c1ccc2nc(NC(=O)c3ccc([N+](=O)[O-])s3)sc2c1` [5i, Ethyl 2-(5-nitrothiophene-2-carboxamido)benzo[d]thiazole-6-carboxylate], in the series with HIV-1NL4-3, the “anti-HIV activity in the primary library screen” value was “moderate to weak”.

For the compound `O=C(Nc1nc2ccc(F)cc2s1)c1ccc([N+](=O)[O-])s1` [5j, N-(6-Fluorobenzo[d]thiazol-2-yl)-5-nitrothiophene-2-carboxamide], in the series on HIV-1NL4-3, the “anti-HIV activity in the primary library screen” value is recorded as “moderate to weak”.

Regarding `O=C(Nc1nc2ccc(Br)cc2s1)c1ccc([N+](=O)[O-])s1` [5k, N-(6-Bromobenzo[d]thiazol-2-yl)-5-nitrothiophene-2-carboxamide], in the series on HIV-1NL4-3, the “anti-HIV activity in the primary library screen” value is “moderate to weak”.

Turning to `O=C(Nc1nc2c(Cl)cccc2s1)c1ccc(C(F)(F)F)s1` [8a, N-(4-Chlorobenzo[d]thiazol-2-yl)-5-(trifluoromethyl)thiophene-2-carboxamide], in the series with HIV-1NL4-3, the “anti-HIV activity, rank within the analogue series” value is “most active”.

With `O=C(Nc1nc2ccc([N+](=O)[O-])cc2s1)c1ccc(C(F)(F)F)s1` [8b, N-(6-nitrobenzo[d]thiazol-2-yl)-5-(trifluoromethyl)thiophene-2-carboxamide], the “anti-HIV activity, rank within the analogue series” value in the series with HIV-1NL4-3 is “most active”. Besides, in the series on CEM-GXR cells, the “toxicity of thiophene analogues” value is “toxicity at low micromolar concentrations”.

Regarding `O=C(Nc1nc2ccc(C(F)(F)F)cc2s1)c1ccc(C(F)(F)F)s1` [8c, 5-(trifluoromethyl)-N-(6-(trifluoromethyl)benzo[d]thiazol-2-yl)thiophene-2-carboxamide], the “anti-HIV activity, rank within the analogue series” value in the series with HIV-1NL4-3 is “most active”. For the same compound, the “toxicity of thiophene analogues” value in the series on CEM-GXR cells is listed as “toxicity at low micromolar concentrations”.

Consider `O=C(Nc1nc2c(Cl)cccc2s1)c1cnc(C(F)(F)F)s1` [12a, N-(4-chlorobenzo[d]thiazol-2-yl)-2-(trifluoromethyl)thiazole-5-carboxamide], for which the EC50 was 955 nM in series [1]; 1170 nM in series [2]; 969 nM in series [3]; 1160 nM in [4]; 951 nM in series [5]; 1290 nM in [7]. Also, the EC50 with HIV-1Bal strain was 335 nM and 44 nM and 200 nM. The “anti-HIV activity, rank within the analogue series” value in the series on HIV-1NL4-3 is “most active”. Also, in the series with PBMCs, the “cellular toxicity in PBMCs at 1 μM” value is “minimal toxicity”. Also, the “cellular toxicity in PBMCs” value in the series with PBMCs was “some cellular toxicity”. Besides, the “generation of Bcl-xL splicing variant with SRSF1 or SRSF9” value in series [6] is reported as “did not have any impact”. Also, in [6] (24 hour), the “abundance of Bcl-xS splice variant with SRSF2” value is given as “increased abundance”. Besides, the “abundance of Bcl-xS splice variant with SRSF7” value in series [6] (24 hour) was “decreased abundance”.

For `O=C(Nc1nc2ccc([N+](=O)[O-])cc2s1)c1cnc(C(F)(F)F)s1` [12b, N-(6-nitrobenzo[d]thiazol-2-yl)-2-(trifluoromethyl)thiazole-5-carboxamide], the “anti-HIV activity, rank within the analogue series” value in the series on HIV-1NL4-3 was “most active”.

For `[N-]=[N+]=Nc1ccc2nc(NC(=O)c3cnc(C(F)(F)F)s3)sc2c1` [12e, N-(6-azidobenzo[d]thiazol-2-yl)-2-(trifluoromethyl)thiazole-5-carboxamide], the “anti-HIV activity, rank within the analogue series” value with HIV-1NL4-3 is reported as “most active”. Moreover, in the series on PBMCs, the “cellular toxicity in PBMCs at 1 μM” value is “minimal toxicity” and the “cellular toxicity in PBMCs” value is on record as “minimal toxicity”.

As for `Nc1nc(=O)n([C@@H]2CS[C@H](CO)O2)cc1F` [FTC, emtricitabine, reference compound], the EC50 in [1] turned out to be 26.3 nM; in [7], 33.7 nM.

Regarding `O=[N+]([O-])c1ccc(C=Cc2ccc3ccccc3n2)s1` [compound 5350150, 2-(2-(5-nitro-2-thienyl)vinyl)quinolone], the HIV replication entry in the series with HIV is given as “blocked HIV replication”.

Usually EC50 stands for the concentration needed to bring the measured effect to its halfway point.
